Test [1] deals with Muscarinic acetylcholine receptor M3 (Homo sapiens, UniProt P20309).
The target of test [2] is T1, Muscarinic acetylcholine receptor M2 (Homo sapiens, UniProt P08172).
T1 sequence (P08172 whole entry): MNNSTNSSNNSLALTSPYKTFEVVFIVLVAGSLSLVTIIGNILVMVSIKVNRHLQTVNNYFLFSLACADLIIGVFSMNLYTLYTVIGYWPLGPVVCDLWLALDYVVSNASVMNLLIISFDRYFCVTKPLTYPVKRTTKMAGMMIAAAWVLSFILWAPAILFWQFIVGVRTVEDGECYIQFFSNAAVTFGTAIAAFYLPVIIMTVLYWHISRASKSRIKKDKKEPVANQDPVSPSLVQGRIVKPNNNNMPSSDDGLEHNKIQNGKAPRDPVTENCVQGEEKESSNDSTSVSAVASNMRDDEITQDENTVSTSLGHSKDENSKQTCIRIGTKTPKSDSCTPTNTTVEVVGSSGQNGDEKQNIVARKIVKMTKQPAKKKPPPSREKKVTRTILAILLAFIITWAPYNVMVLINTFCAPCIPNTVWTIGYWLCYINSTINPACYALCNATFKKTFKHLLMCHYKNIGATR

Test [3] has as its target T2, Muscarinic acetylcholine receptor M1 (Homo sapiens, UniProt P11229).
T2 sequence (P11229 whole entry): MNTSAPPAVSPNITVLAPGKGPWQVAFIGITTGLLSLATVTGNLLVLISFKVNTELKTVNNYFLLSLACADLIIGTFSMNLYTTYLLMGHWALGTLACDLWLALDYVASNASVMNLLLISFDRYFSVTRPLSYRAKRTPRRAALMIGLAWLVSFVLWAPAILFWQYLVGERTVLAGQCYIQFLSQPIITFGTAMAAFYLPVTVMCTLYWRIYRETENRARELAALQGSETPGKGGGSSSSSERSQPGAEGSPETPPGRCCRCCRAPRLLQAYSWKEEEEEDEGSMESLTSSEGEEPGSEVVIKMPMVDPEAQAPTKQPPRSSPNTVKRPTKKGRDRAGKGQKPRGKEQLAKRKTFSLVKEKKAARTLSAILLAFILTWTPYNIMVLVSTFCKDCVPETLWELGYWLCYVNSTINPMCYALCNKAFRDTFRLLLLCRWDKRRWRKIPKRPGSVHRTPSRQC

For test [4], the target named is T3, Muscarinic acetylcholine receptor M4 (Homo sapiens, UniProt P08173).
T3 sequence (P08173 whole entry): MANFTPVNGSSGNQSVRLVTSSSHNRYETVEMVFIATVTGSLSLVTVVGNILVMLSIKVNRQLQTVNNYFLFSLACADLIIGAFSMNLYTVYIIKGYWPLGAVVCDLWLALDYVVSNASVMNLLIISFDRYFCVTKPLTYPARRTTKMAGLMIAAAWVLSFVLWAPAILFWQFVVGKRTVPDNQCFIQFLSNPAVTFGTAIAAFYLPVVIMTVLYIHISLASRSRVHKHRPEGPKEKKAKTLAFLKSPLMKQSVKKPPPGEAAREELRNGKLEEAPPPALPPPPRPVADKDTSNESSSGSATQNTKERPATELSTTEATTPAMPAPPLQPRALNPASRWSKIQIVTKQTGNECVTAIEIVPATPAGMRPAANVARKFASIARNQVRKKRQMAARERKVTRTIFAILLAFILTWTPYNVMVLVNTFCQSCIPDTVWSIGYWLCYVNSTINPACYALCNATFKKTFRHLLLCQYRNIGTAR

Test [5] addresses T4, Muscarinic acetylcholine receptor M5 (Homo sapiens, UniProt P08912).
T4 sequence (P08912 whole entry): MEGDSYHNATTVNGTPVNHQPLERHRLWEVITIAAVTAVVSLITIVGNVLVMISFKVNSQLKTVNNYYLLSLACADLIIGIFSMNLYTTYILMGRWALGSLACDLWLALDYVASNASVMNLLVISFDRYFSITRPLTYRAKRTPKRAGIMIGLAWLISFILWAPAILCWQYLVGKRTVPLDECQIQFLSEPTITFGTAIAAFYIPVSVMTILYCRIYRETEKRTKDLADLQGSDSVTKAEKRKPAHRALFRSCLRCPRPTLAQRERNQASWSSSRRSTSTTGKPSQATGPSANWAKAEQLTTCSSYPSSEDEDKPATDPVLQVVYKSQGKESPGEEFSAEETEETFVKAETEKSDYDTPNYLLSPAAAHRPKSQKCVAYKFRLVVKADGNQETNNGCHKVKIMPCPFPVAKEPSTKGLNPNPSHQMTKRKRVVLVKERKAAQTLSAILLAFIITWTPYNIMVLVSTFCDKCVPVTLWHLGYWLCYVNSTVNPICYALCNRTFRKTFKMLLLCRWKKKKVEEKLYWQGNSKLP

The target in test [6] is T5, Muscarinic acetylcholine receptor M2 (Rattus norvegicus, UniProt P10980).
T5 sequence (P10980 whole entry): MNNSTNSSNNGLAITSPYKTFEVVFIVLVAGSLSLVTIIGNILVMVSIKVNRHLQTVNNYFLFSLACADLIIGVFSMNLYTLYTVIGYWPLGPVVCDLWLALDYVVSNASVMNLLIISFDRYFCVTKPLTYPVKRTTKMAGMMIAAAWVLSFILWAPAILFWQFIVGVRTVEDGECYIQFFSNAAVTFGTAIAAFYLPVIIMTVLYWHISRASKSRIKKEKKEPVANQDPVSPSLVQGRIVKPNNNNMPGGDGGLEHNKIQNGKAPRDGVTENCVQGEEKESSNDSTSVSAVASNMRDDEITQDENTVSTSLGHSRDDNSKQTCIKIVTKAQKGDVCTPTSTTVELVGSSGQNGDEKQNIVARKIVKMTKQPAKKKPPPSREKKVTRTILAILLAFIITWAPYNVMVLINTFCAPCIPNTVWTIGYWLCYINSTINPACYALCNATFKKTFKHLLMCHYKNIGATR

Sequence of Muscarinic acetylcholine receptor M3 (P20309 whole entry): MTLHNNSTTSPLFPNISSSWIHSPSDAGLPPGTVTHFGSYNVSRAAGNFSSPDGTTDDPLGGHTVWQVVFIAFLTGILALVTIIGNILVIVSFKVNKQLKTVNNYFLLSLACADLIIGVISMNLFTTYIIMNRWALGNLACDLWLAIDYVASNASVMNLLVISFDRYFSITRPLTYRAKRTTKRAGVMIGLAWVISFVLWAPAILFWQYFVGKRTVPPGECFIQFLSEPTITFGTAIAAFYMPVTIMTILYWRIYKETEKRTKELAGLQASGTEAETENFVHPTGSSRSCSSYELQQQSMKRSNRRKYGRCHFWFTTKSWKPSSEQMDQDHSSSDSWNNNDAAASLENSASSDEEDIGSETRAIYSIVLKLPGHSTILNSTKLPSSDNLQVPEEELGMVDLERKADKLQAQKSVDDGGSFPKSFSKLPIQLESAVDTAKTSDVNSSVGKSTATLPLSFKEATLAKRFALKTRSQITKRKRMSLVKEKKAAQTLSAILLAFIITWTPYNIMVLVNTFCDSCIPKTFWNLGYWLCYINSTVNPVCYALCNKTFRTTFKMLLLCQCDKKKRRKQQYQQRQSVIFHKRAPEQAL

What is called Ki is the dissociation constant of the complex between target and ligand, obtained from inhibition or displacement. Read a low Ki as higher affinity. Regarding `C(#Cc1ccccc1)COc1nsnc1C1CN2CCC1CC2` (stereo unspecified), the Ki in test [1] is 77.6 nM; in test [2], 58.9 nM; in test [3] it was 41.7 nM; in test [4], 49 nM; in test [5] it was 14.8 nM.

As for `C(#Cc1ccc(C#CCOc2nsnc2C2CN3CCC2CC3)cc1)COc1nsnc1C1CN2CCC1CC2` (stereo unspecified) [NNC 11-1585], the Ki in test [1] was determined as 4.68 nM; in test [2], 0.079 nM; in test [3] it was 0.129 nM; in test [4] it was 2.57 nM; in test [5] it was 5.25 nM.

With `C(#Cc1cccc(C#CCOc2nsnc2C2CN3CCC2CC3)c1)COc1nsnc1C1CN2CCC1CC2` (stereo unspecified) [NNC 11-1607], the Ki in test [1] is 8.13 nM; in test [2] it was 5.75 nM; in test [3], 2.4 nM; in test [6] it was 9.55 nM; in test [4], 8.13 nM; in test [5], 6.03 nM.

The values above are taken from BindingDB's records for PubMed 11504829 (University of Melbourne, 2001).
